# Data: article PMC8585833, “Serum concentrations of antidepressants, antipsychotics, and antiepileptics over the bariatric surgery procedure” (European Journal of Clinical Pharmacology, 2021)
# Read-outs that look alike come from different tables or passages of the source.
# How the values were obtained:
# [1] = Dose-adjusted steady-state trough serum concentrations before and after low-calorie diet and bariatric surgery; format: in vivo, human; conditions: for Reduction of dose-adjusted concentration on the last day of sampling: post-surgery versus pre-surgery, substances with samples from six or more participants; for Course of dose-adjusted concentration after surgery: following the low-calorie diet; for Change in dose-adjusted concentration over the pre-surgery low-calorie diet: after the pre-surgery diet, before surgery, median weight reduction 6 kg
# Excerpt: We designed the study as a naturalistic longitudinal, prospective case series with intra-individual comparisons of drug concentrations over time, before and up to 1 year after the surgical procedure.
# The participants contributed blood samples to the current study during routine pre-surgery visits before, and post-surgery visits about 8 weeks, 6 months, and 1 year after, the surgery. Pre-surgery sampling generally occurred twice: at an initial preoperative assessment visit, and just before surgery. Between these visits, that is, before surgery, patients were required to adhere to a low-calorie diet and show a weight reduction. The samples were stored as serum in −80 °C at a biobank, and analysed after all samples had been collected.
# Before every routine visit at which the sampling was to occur, we contacted the participants by telephone to systematically obtain information on the current dose as well as adherence to the drug treatment in question over the 2 preceding weeks. Samples were excluded from the data set if non-adherence less than four elimination half-lives prior to sampling was reported; exceptions were made for occasional missed doses of fluoxetine. Half-lives applied were those described for a drug or its metabolite in the summary of product characteristics. We also asked for and recorded concomitant drug treatment, weight, and smoking status. To be able to relate potential changes in concentration to health consequences, we asked the participants during the follow-up phone calls, using an open question, if anything had happened to their health since the last visit. To obtain trough blood concentrations, we strived to schedule the routine visits before lunchtime and the participants were instructed not to take morning tablets before the sampling.
# Specific substances were analysed concomitantly, using clinical routine methods, at accredited laboratories at the Department of Clinical Chemistry, Sahlgrenska University Hospital, Gothenburg, Sweden, or (as for gabapentin, hydroxybupropion, mianserine, pregabalin, paroxetine and topiramate) at the Department of Clinical Pharmacology, St. Olav’s Hospital, Trondheim, Norway. Analysis methods were based on liquid chromatography/tandem mass spectrometry or (for lamotrigine and valproic acid) enzyme immunoassay.
# Statistical analyses were performed using SPSS, version 23.0 (IBM SPSS Statistics for Windows, Armonk, NY, USA). Participants treated with the same substance before and after surgery, with one or more trough sample concentrations available, were included in the analysis. To allow interindividual and intraindividual comparisons, serum concentrations were adjusted for defined daily dose (DDD). For example, since DDD for citalopram is 20 mg, a DDD-adjusted citalopram concentration of 100 nmol/L could represent a measured concentration of 50, 100, or 200 nmol/L, given a daily dose of 10, 20, or 40 mg, respectively. To compare pre- to post-surgery concentrations, as well as pre- to post-diet concentrations, we used Wilcoxon signed rank test for substances with samples available for six or more individuals. We used Spearman’s correlation to explore the relationship between the ratio of the post-/pre-diet concentrations and (i) the distribution coefficient for the drug in question, i.e., the logarithm of the ratio of its concentration in a lipophilic and a hydrophilic solution (logD), as well as (ii) the weight loss in kilograms for pregabalin.
# [2] = source not stated, cited from earlier work
# [3] = historical data or matched non-surgery subjects as controls; cited from earlier work
# [4] = Table 2A, trough serum, adjusted for dose in DDDs
# [5] = Table 2A, trough serum, adjusted for dose in DDDs, last observation carried forward, median 379 days after surgery
# [6] = Table 2B, trough serum, adjusted for dose in DDDs, after pre-surgery low-calorie diet
# [7] = Table 2B, trough serum, adjusted for dose in DDDs, before low-calorie diet
# [8] = Table 2A, antiepileptics, trough serum, adjusted for dose in DDDs
# [9] = Table 2A, antiepileptics, trough serum, adjusted for dose in DDDs, last observation carried forward, median 379 days after surgery
# [10] = Table 2B, antiepileptics, trough serum, adjusted for dose in DDDs, after pre-surgery low-calorie diet
# [11] = Table 2B, antiepileptics, trough serum, adjusted for dose in DDDs, before low-calorie diet
# [12] = human, in vivo, 379 days after surgery (median), trough
smiles,measurement,setting,value
CN(C)CCC=C1c2ccccc2CCc2ccccc21 [Amitriptyline],"Dose-adjusted drug concentration Median (IQR), Pre-diet/pre-surgery",[1]; [4],283 (N/A) nmol/L
same,"Dose-adjusted drug concentration Median (IQR), Post-surgery",[1]; [5],218 (N/A) nmol/L
same,"Dose-adjusted drug concentration Median (IQR), post-diet",[1]; [6],279 (N/A) nmol/L
same,"Dose-adjusted drug concentration Median (IQR), pre-diet",[1]; [7],283 (N/A) nmol/L
CN(C)CCCC1(c2ccc(F)cc2)OCc2cc(C#N)ccc21 (stereo not drawn) [Citalopram],"Concentration, Post-surgery","[1]; Case 1, GBP, day +252, drug dose 10 mg",69 nM
same,"Concentration, Post-surgery","[1]; Case 1, GBP, day +374, drug dose 20 mg",158 nM
same,"Concentration, Baseline","[1]; Case 1, GBP, drug dose 10 mg",137 nM
same,"Concentration, Post-surgery","[1]; Case 2, GBP, day +178, drug dose 10 mg",42 nM
same,"Concentration, Post-surgery","[1]; Case 2, GBP, day +386, drug dose 20 mg",90 nM
same,"Concentration, Baseline","[1]; Case 2, GBP, drug dose 10 mg",89 nM
same,Reduction of dose-adjusted concentration on the last day of sampling,[1],19%
CNCC[C@H](Oc1cccc2ccccc12)c1cccs1 [Duloxetine],Course of dose-adjusted concentration after surgery,[1],continued to decrease
same,Change in dose-adjusted concentration over the pre-surgery low-calorie diet,[1],varied
same,"Dose-adjusted drug concentration Median (IQR), Pre-diet/pre-surgery","[1]; human, in vivo",127 (96–203) nmol/L
same,"Dose-adjusted drug concentration Median (IQR), post-diet","[1]; human, in vivo",105 (64–235) nmol/L
same,"Dose-adjusted drug concentration Median (IQR), pre-diet","[1]; human, in vivo",127 (96–203) nmol/L
same,"concentration at 379 days after surgery (median), trough","[1]; human, in vivo",82 nM
same,Reduction of dose-adjusted concentration on the last day of sampling,[1],35%
same,logD,"[2]; octanol/water, pH 7.4",1.54
CNCCC(Oc1ccc(C(F)(F)F)cc1)c1ccccc1 (stereo not drawn) [Fluoxetine],Course of dose-adjusted concentration after surgery,[1],continued to increase also after surgery
same,"Dose-adjusted drug concentration Median (IQR), Pre-diet/pre-surgery","[1]; human, in vivo",221 (157–371) nmol/L
same,"Dose-adjusted drug concentration Median (IQR), post-diet","[1]; human, in vivo",263 (182–333) nmol/L
same,"Dose-adjusted drug concentration Median (IQR), pre-diet","[1]; human, in vivo",259 (147–379) nmol/L
same,"concentration at 379 days after surgery (median), trough","[1]; human, in vivo",294 nM
NCC1(CC(=O)O)CCCCC1 [Gabapentin],"Dose-adjusted drug concentration Median (IQR), Pre-diet/pre-surgery",[1]; [8],34 (N/A) µmol/L
same,"Dose-adjusted drug concentration Median (IQR), Post-surgery",[1]; [9],35 (N/A) µmol/L
same,"Dose-adjusted drug concentration Median (IQR), post-diet",[1]; [10],43 (N/A) µmol/L
same,"Dose-adjusted drug concentration Median (IQR), pre-diet",[1]; [11],28 (N/A) µmol/L
same,Change in dose-adjusted concentration over the pre-surgery low-calorie diet,[1],increased
C[C@H]1NC(C)(C)CO[C@]1(O)c1cccc(Cl)c1 [Hydroxybupropion],"Dose-adjusted drug concentration Median (IQR), Pre-diet/pre-surgery",[1]; [4],"3,997 (N/A) nmol/L"
same,"Dose-adjusted drug concentration Median (IQR), Post-surgery",[1]; [5],"3,298 (N/A) nmol/L"
same,"Dose-adjusted drug concentration Median (IQR), post-diet",[1]; [6],"3,067 (N/A) nmol/L"
same,"Dose-adjusted drug concentration Median (IQR), pre-diet",[1]; [7],"2,732 (N/A) nmol/L"
Nc1nnc(-c2cccc(Cl)c2Cl)c(N)n1 [Lamotrigine],"Dose-adjusted drug concentration Median (IQR), Pre-diet/pre-surgery",[1]; [8],17 (15–23) µmol/L
same,"Dose-adjusted drug concentration Median (IQR), post-diet",[1]; [10],23 (19–29) µmol/L
same,"Dose-adjusted drug concentration Median (IQR), pre-diet",[1]; [11],17 (15–25) µmol/L
same,Change in dose-adjusted concentration over the pre-surgery low-calorie diet,[1],increased
same,"concentration at 379 days after surgery (median), trough","[1]; human, oral, Table 2A, antiepileptics, trough serum, adjusted for dose in DDDs, last observation carried forward, median 379 days after surgery, read-out: Dose-adjusted drug concentration Median (IQR), Post-surgery",18000 nM
CN1CCN2c3ncccc3Cc3ccccc3C2C1 (stereo not drawn) [Mirtazapine],"Concentration, Post-surgery","[1]; Case 3, GBP, day +68, drug dose 15 mg",30 nM
same,"Concentration, Post-surgery","[1]; Case 3, GBP, day +368, drug dose 30 mg",203 nM
same,"Concentration, Baseline","[1]; Case 3, GBP, drug dose 15 mg",96 nM
same,"Concentration, Post-surgery","[1]; Case 4, Sleeve, day 213, drug dose 30 mg",87 nM
same,"Concentration, Post-surgery","[1]; Case 4, Sleeve, day 393, drug dose 45 mg",119 nM
same,"Concentration, Baseline","[1]; Case 4, Sleeve, drug dose 30 mg",140 nM
same,Change in dose-adjusted concentration over the pre-surgery low-calorie diet,[1],decreased
same,"Dose-adjusted drug concentration Median (IQR), Pre-diet/pre-surgery","[1]; human, in vivo",148 (131–170) nmol/L
same,"Dose-adjusted drug concentration Median (IQR), post-diet","[1]; human, in vivo",76 (50–102) nmol/L
same,"Dose-adjusted drug concentration Median (IQR), pre-diet","[1]; human, in vivo",138 (120–157) nmol/L
same,"concentration at 379 days after surgery (median), trough","[1]; human, in vivo",88 nM
same,Reduction of dose-adjusted concentration on the last day of sampling,[1],41%
Cc1cc2c(s1)Nc1ccccc1N=C2N1CCN(C)CC1 [Olanzapine],"Dose-adjusted drug concentration Median (IQR), Pre-diet/pre-surgery","[1]; human, in vivo",113 (N/A) nmol/L
Fc1ccc([C@@H]2CCNC[C@H]2COc2ccc3c(c2)OCO3)cc1 [Paroxetine],"Dose-adjusted drug concentration Median (IQR), Pre-diet/pre-surgery","[1]; human, in vivo",22 (N/A) nmol/L
same,"Dose-adjusted drug concentration Median (IQR), post-diet","[1]; human, in vivo",69 (N/A) nmol/L
same,"Dose-adjusted drug concentration Median (IQR), pre-diet","[1]; human, in vivo",22 (N/A) nmol/L
same,"Dose-adjusted drug concentration Median (IQR), Post-surgery",[1]; [12],167 (N/A) nmol/L
OCCOCCN1CCN(C2=Nc3ccccc3Sc3ccccc32)CC1 [Quetiapine],Change in dose-adjusted concentration over the pre-surgery low-calorie diet,[1],decreased
same,"Dose-adjusted drug concentration Median (IQR), Pre-diet/pre-surgery","[1]; human, in vivo",848 (N/A) nmol/L
same,"Dose-adjusted drug concentration Median (IQR), post-diet","[1]; human, in vivo",260 (N/A) nmol/L
same,"Dose-adjusted drug concentration Median (IQR), pre-diet","[1]; human, in vivo",848 (N/A) nmol/L
same,"Dose-adjusted drug concentration Median (IQR), Post-surgery",[1]; [12],239 (N/A) nmol/L
CN[C@H]1CC[C@@H](c2ccc(Cl)c(Cl)c2)c2ccccc21 [Sertraline],"Concentration, Post-surgery","[1]; Case 3, GBP, day +68, drug dose 200 mg",66 nM
same,"Concentration, Post-surgery","[1]; Case 3, GBP, day +368, drug dose 200 mg",78 nM
same,"Concentration, Baseline","[1]; Case 3, GBP, drug dose 200 mg",130 nM
same,Change in dose-adjusted concentration over the pre-surgery low-calorie diet,[1],decreased
same,"Dose-adjusted drug concentration Median (IQR), Pre-diet/pre-surgery","[1]; human, in vivo",51 (27–84) nmol/L
same,"Dose-adjusted drug concentration Median (IQR), post-diet","[1]; human, in vivo",39 (23–53) nmol/L
same,"Dose-adjusted drug concentration Median (IQR), pre-diet","[1]; human, in vivo",66 (43–87) nmol/L
same,"concentration at 379 days after surgery (median), trough","[1]; human, in vivo",25 nM
same,Reduction of dose-adjusted concentration on the last day of sampling,[1],51%
CC1(C)O[C@@H]2[C@@H](CO[C@@]3(COS(N)(=O)=O)OC(C)(C)O[C@@H]23)O1 [Topiramate],"Dose-adjusted drug concentration Median (IQR), Pre-diet/pre-surgery",[1]; [8],33 (N/A) µmol/L
same,"Dose-adjusted drug concentration Median (IQR), Post-surgery",[1]; [9],37 (N/A) µmol/L
same,"Dose-adjusted drug concentration Median (IQR), post-diet",[1]; [10],31 (N/A) µmol/L
same,"Dose-adjusted drug concentration Median (IQR), pre-diet",[1]; [11],39 (N/A) µmol/L
CCCC(CCC)C(=O)O [Valproic acid],"Dose-adjusted drug concentration Median (IQR), Pre-diet/pre-surgery",[1]; [8],533 (N/A) µmol/L
same,"Dose-adjusted drug concentration Median (IQR), Post-surgery",[1]; [9],529 (N/A) µmol/L
same,"Dose-adjusted drug concentration Median (IQR), post-diet",[1]; [10],759 (N/A) µmol/L
same,"Dose-adjusted drug concentration Median (IQR), pre-diet",[1]; [11],737 (N/A) µmol/L
COc1ccc(C(CN(C)C)C2(O)CCCCC2)cc1 (stereo not drawn) [Venlafaxine],"Dose-adjusted drug concentration Median (IQR), Pre-diet/pre-surgery",[1]; [4],173 (88–443) nmol/L
same,"Dose-adjusted drug concentration Median (IQR), post-diet",[1]; [6],132 (87–215) nmol/L
same,"Dose-adjusted drug concentration Median (IQR), pre-diet",[1]; [7],172 (79–399) nmol/L
same,"concentration at 379 days after surgery (median), trough","[1]; human, oral, Table 2A, trough serum, adjusted for dose in DDDs, last observation carried forward, median 379 days after surgery, read-out: Dose-adjusted drug concentration Median (IQR), Post-surgery",168 nM
CN(C)C(=N)N=C(N)N [metformin],Concentration change after the bariatric surgery procedure,[3],appeared to increase
COc1c(N2C[C@@H]3CCCN[C@@H]3C2)c(F)cc2c(=O)c(C(=O)O)cn(C3CC3)c12 [moxifloxacin],Concentration change after the bariatric surgery procedure,[3],appeared to increase
NCCC(Oc1ccc(C(F)(F)F)cc1)c1ccccc1 (stereo not drawn) [norfluoxetine],Course of dose-adjusted concentration after surgery,[1],continued to increase also after surgery
CO[C@H]1C[C@@H]2CC[C@@H](C)[C@@](O)(O2)C(=O)C(=O)N2CCCC[C@H]2C(=O)O[C@H]([C@H](C)C[C@@H]2CC[C@@H](O)[C@H](OC)C2)CC(=O)[C@H](C)/C=C(\C)[C@@H](O)[C@@H](OC)C(=O)[C@H](C)C[C@H](C)/C=C/C=C/C=C/1C [sirolimus],Concentration change after the bariatric surgery procedure,[3],appeared to decrease
same,logD,[2]; selection limit for extremely hydrophilic or extremely lipophilic substances in literature search,> 4
CC/C(=C(\c1ccccc1)c1ccc(OCCN(C)C)cc1)c1ccccc1 [tamoxifen],Concentration change after the bariatric surgery procedure,[3],appeared to decrease
